Measured values from PubChem BioAssay (NCI).
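Five compound concentrations were applied to cells in 96-well plates for 48 hours; endpoints were derived by simple linear interpolation of the resulting dose-response curve. GI50 marks 50% less growth. TGI: total growth inhibition.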

What was measured:
Assay in all cases: NCI tumour cell line growth inhibition, 48 h
[1] = system: 786-0 renal
[2] = system: CAKI-1 renal
[3] = system: CCRF-CEM leukemia
[4] = system: HCT-116 colon
[5] = system: MDA-MB-231 breast
[6] = system: SK-OV-3 ovarian
[7] = system: SN12C renal
[8] = system: SNB-75 CNS
[9] = system: SW-620 colon
[10] = system: T-47D breast

| SMILES | GI50 [1] [µM] | TGI [1] [µM] | GI50 [2] [µM] | TGI [2] [µM] | GI50 [3] [µM] | TGI [3] [µM] | GI50 [4] [µM] | TGI [4] [µM] | GI50 [5] [µM] | TGI [5] [µM] | GI50 [6] [µM] | TGI [6] [µM] | GI50 [7] [µM] | TGI [7] [µM] | GI50 [8] [µM] | TGI [8] [µM] | GI50 [9] [µM] | TGI [9] [µM] | GI50 [10] [µM] | TGI [10] [µM] |
| --- | --- | --- | --- | --- | --- | --- | --- | --- | --- | --- | --- | --- | --- | --- | --- | --- | --- | --- | --- | --- |
| CC1(C)N=C(N)N=C(N)N1c1ccc(CCCC(=O)Nc2ccc(S(=O)(=O)F)cc2)cc1 | 4.97 | > 100 | 35 | > 100 | 4.13 | > 100 | 3.69 | > 100 | 45.7 | > 100 | > 100 | > 100 | 6.15 | > 100 | 10.2 | > 100 | 1.99 | > 100 | 15.8 | 98.2 |
| CC[C@H](C)[C@H](NC(=O)C12C3C4C1C1C2C3C41NC)C(=O)N(C)[C@H](C[C@@H](OC(C)=O)c1nc(C(=O)N[C@@H](Cc2ccccc2)C[C@H](C)C(=O)OC)cs1)C(C)C (stereo not given in full) | 0.76 | > 14.3 | 5.57 | > 14.3 | 0.445 | > 14.3 | 0.346 | > 14.3 | 0.798 | > 13 | 0.698 | > 14.3 | 0.896 | > 14.3 | 0.319 | > 14.3 | 0.459 | > 14.3 | > 14.3 | > 14.3 |
| COc1cccc(C2CC(=O)Nc3c2c(C)nn3-c2nc3ccccc3[nH]2)c1OC (stereo not given) | 5.51 | 65 | 3 | 19.7 | 1.86 | > 100 | 3.36 | 14.6 | 2.92 | 8.26 | 3.83 | 13 | 4.29 | 48.3 | 2.43 | 13.5 | 4.19 | 46.4 | 4.02 | 50.7 |
| Cc1ccc(-c2nc(NCCOCCOCCN)nc(N3CCN(c4ccccn4)CC3)n2)cc1 | 12.4 | 26.8 | 16.5 | 33.7 | 14.1 | 37.1 | 10 | 27.8 | 14.1 | 29.8 | 19.1 | 35.6 | 14 | 29.5 | 13.9 | 27.4 | 11 | 29.2 | 13.7 | 29.1 |
| COc1cccc(/C=C2\N=C(c3ccccc3)OC2=O)c1 | – | > 100 | – | > 100 | – | 58.8 | – | > 100 | – | > 100 | – | > 100 | – | > 100 | – | 77.1 | – | > 100 | – | > 100 |
| C=C1C(=O)OC2CC(C)C(/C=C/C(C)=O)=CCC12 (stereo not given) | – | > 100 | – | > 100 | – | > 100 | – | > 100 | – | > 100 | – | > 100 | – | > 100 | – | > 100 | – | > 100 | – | > 100 |
| N[C@@H]1CCCN(c2c(Br)cnc3[nH]cc(NC(=O)C4CC4)c23)C1 | 0.22 | 0.709 | 0.518 | 6 | 0.211 | > 100 | 10.6 | > 100 | 2.91 | 77.5 | 0.448 | > 100 | 1.78 | > 100 | 1.53 | 7.54 | 2.06 | > 100 | 38.2 | > 100 |
| Nc1cccc(-c2cc(=O)c3cc4c(cc3[nH]2)OCO4)c1 | – | > 100 | – | > 100 | – | > 100 | – | 3.62 | – | 8.64 | – | > 28.5 | – | > 100 | – | > 100 | – | > 100 | – | > 100 |
| COc1cc2ncn(-c3cc(OCc4ccccc4C(F)(F)F)c(C(N)=O)s3)c2cc1OC | 1.56 | 22.5 | 3.88 | > 25 | 0.0841 | > 25 | 0.246 | > 25 | 0.27 | > 25 | 0.251 | 9.09 | 2.67 | > 25 | 2.7 | 9.31 | 0.0822 | > 25 | 4.42 | > 25 |
| CC1(C)CC(O)CC(C)(C)N1O | – | > 100 | – | > 100 | – | > 100 | – | > 100 | – | > 100 | – | > 100 | – | > 100 | – | > 100 | – | > 100 | – | > 100 |
| Cn1c(=O)c(-c2ccccc2Cl)cc2cnc(NC3CCOCC3)nc21 | 13.1 | > 25 | 6.58 | > 25 | 14.8 | > 25 | 8.05 | > 25 | 7.69 | > 25 | 8.89 | > 25 | 8.05 | > 25 | 3.82 | > 25 | 14.8 | > 25 | 18.1 | > 25 |
| Nc1ncn([C@H]2CC(O)[C@@H](CO)S2)c(=O)n1 (stereo not given in full) | 13.9 | > 100 | 1.99 | > 100 | 2.45 | > 100 | 0.371 | > 100 | 3.57 | > 100 | 28.9 | > 100 | 3.6 | > 100 | 53.9 | > 100 | 1.48 | > 100 | > 100 | > 100 |
| COc1cc(N=Nc2cc(Cc3ccc(N(C)C)cc3)c(N)cc2N(C)C)c2ncccc2c1 | 1.01 | 2.25 | 0.408 | 2.37 | 0.126 | 2.29 | 0.0426 | 1.19 | 0.512 | 2.17 | 0.406 | 8.17 | 0.649 | 2.32 | 0.574 | 2.04 | 0.374 | 2.16 | 0.211 | 2 |
